Test results from ChEMBL document CHEMBL1123518, “Synthesis and biological evaluation of irreversible inhibitors of aldose reductase” (J Med Chem, 1986).

Assays:
[1] = target: Aldo-keto reductase family 1 member B1 (Rattus norvegicus, UniProt P07943); test: Compound was tested for 50% inhibitory concentration that was required for irreversible inhibition of aldose reductase
[2] = target: Aldo-keto reductase family 1 member B1 (Rattus norvegicus) (UniProt P07943); test: Compound was tested for % inhibition against RLAR (aldose reductase)at a concentration of 10 uM, pre-incubated with 100 uM sorbinil
[3] = target: Aldo-keto reductase family 1 member B1 (Rattus norvegicus) (UniProt P07943); test: Compound was tested for % inhibition against RLAR (aldose reductase) at a concentration of 10 micro M.

SMILES | IC50 [1] | inhibition [2] | inhibition [3]
COC(=O)CN1C(=O)c2cccc3cc(N=C=S)cc(c23)C1=O | 14 µM | – | –
S=C=Nc1ccccc1 | – | 5% | 34%

The next lines start with results.

IC50 [1] | SMILES | inhibition [2] | inhibition [3]
0.3 µM | O=C(O)CN1C(=O)c2cccc3cc(N=C=S)cc(c23)C1=O | 5% | 57%
3.6 µM | [N-]=[N+]=Nc1cc2c3c(cccc3c1)C(=O)N(CC(=O)O)C2=O | – | –
38 µM | COC(=O)CN1C(=O)c2cccc3cc(N=[N+]=[N-])cc(c23)C1=O | – | –
